According to PubChem BioAssay (NCI):
Values joined by “and” are separate entries in the source; they are usually repeats but may differ in a detail not shown here. Equal values may be shown once.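 Exposure lasted 48 hours, with cells grown in 96-well plates and compounds tested at five concentrations. Here, GI50 denotes the concentration required for 50% inhibition of growth. TGI denotes the concentration required for complete inhibition of growth.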 Where a SMILES comes first, the peptide text is derived from it. The star is where a group is joined. Trt = c1ccc(C(c2ccccc2)(c2ccccc2)*)cc1; Cbz = O=C(OCc1ccccc1)*

Legend:
Test in all cases: DTP human tumour cell line panel, 48 h
[1] = tested on: IGROV1 ovarian
[2] = tested on: UACC-62 melanoma
[3] = tested on: SK-MEL-28 melanoma
[4] = tested on: RXF 393 renal
[5] = tested on: TK-10 renal
[6] = tested on: HT29 colon
[7] = tested on: HCT-15 colon
[8] = tested on: MCF7 breast
[9] = tested on: OVCAR-3 ovarian
[10] = tested on: BT-549 breast

Row | SMILES | TGI [1] | TGI [2] | TGI [3] | TGI [4] | TGI [5] | TGI [6] | TGI [7] | TGI [8] | TGI [9] | GI50 [10] | TGI [10] | GI50 [1] | GI50 [2] | GI50 [3] | GI50 [4] | GI50 [5] | GI50 [8] | GI50 [6] | GI50 [7] | GI50 [9]
1 | Nc1ccc2n[se]nc2c1 | > 100 µM | > 100 µM | > 100 µM | > 100 µM | > 100 µM | > 100 µM | > 100 µM |  |  |  |  |  |  |  |  |  |  |  |  | 
2 | Cc1ccc(CNc2ccc(Br)cc2)cc1 |  | > 100 µM | > 100 µM | 76.5 µM | > 100 µM | 93.4 µM | 66.1 µM | 61 µM | > 100 µM |  |  |  |  |  |  |  |  |  |  | 
3 | CCCCC1=CSC(c2ccccc2)=C(c2ccccc2)S1 | > 100 µM | > 100 µM | > 100 µM |  | > 100 µM | > 100 µM | > 100 µM |  | > 100 µM |  |  |  |  |  |  |  |  |  |  | 
4 | COC(=O)CCSC(=O)Nc1ccc(N=Nc2ccccc2)cc1 | > 100 µM | > 100 µM | > 100 µM | > 100 µM | > 100 µM | > 100 µM | > 100 µM |  | 74.9 µM |  |  |  |  |  |  |  |  |  |  | 
5 | CCOC(=O)c1c(-c2ccccc2)[n+](=O)c2cc(Cl)c(Cl)cc2n1[O-] | > 100 µM | 22.6 µM | 36.3 µM | 22.9 µM | 4.07 µM | 36.3 µM | 21 µM | 20.9 µM | 4.41 µM | 17.3 µM | 33.5 µM | 1.63 µM | 5.11 µM | 13.7 µM | 6.59 µM | 1.57 µM | 2.03 µM | 12 µM | 6.55 µM | 1.8 µM
6 | Nc1nnc2c(-c3ccccc3)[nH]nc2n1 |  |  | > 100 µM | > 100 µM | > 100 µM | > 100 µM | > 100 µM |  | > 100 µM |  |  |  |  |  |  |  |  |  |  | 
7 | Cc1ccc(NC(=O)CCc2nc(=S)[nH][nH]2)cc1 | > 100 µM | > 100 µM | > 100 µM |  | > 100 µM | > 100 µM | > 100 µM |  | > 100 µM |  |  |  |  |  |  |  |  |  |  | 
8 | COC(=O)C(CO)NC(=O)C(CSC(c1ccccc1)(c1ccccc1)c1ccccc1)NC(=O)OCc1ccccc1 (stereo unspecified) (Cbz-Cys(Trt)-Ser-OMe; configuration not given here) | 37.3 µM | 24.9 µM | 34 µM | 32.5 µM | > 66.1 µM | 33.3 µM | > 52.9 µM | > 59.1 µM | 28.6 µM |  |  |  |  |  |  |  |  |  |  | 
9 | O=[N+]([O-])c1ccc(C2=Nc3ccccc3S(=O)C(c3ccccc3)C2)cc1 (stereo unspecified) | 36.9 µM | 29.9 µM | 48.1 µM | 29 µM | 82.9 µM | 42 µM | 76.2 µM |  | 37.3 µM |  |  |  |  |  |  |  |  |  |  | 
10 | C/C(=N\O)c1ccc2ccc3ccccc3c2c1 | > 100 µM | 45.2 µM | > 100 µM | > 100 µM | > 100 µM | > 100 µM | > 100 µM | > 100 µM | 90.9 µM |  |  |  |  |  |  |  |  |  |  | 
11 | CCOc1ccccc1N=Nc1ccc2oc(=O)c(C(C)=O)cc2c1 | > 100 µM | > 100 µM | > 100 µM |  | > 100 µM | > 100 µM | > 100 µM |  | > 100 µM |  |  |  |  |  |  |  |  |  |  | 
12 | COC(=O)C(=O)Cc1nc2ccccc2s1 | > 100 µM | > 100 µM | > 100 µM | > 100 µM | > 100 µM | > 100 µM | > 100 µM |  | > 100 µM |  |  |  |  |  |  |  |  |  |  | 
13 | COc1cnc2c(c1)C(=O)c1c-2n(CCCNC2=NCCS2)c(=O)c2cc(F)ccc12 | 15.5 µM | 14.6 µM | 24.9 µM |  | 2.52 µM | 2.02 µM | 4.53 µM | 1.66 µM | 2.27 µM | 1.08 µM | 17.5 µM | 0.434 µM | 0.344 µM | 12.1 µM |  | 1.12 µM | 0.033 µM | 0.0753 µM | 1.21 µM | 0.567 µM
14 | Cn1c(CBr)nc2c1C(=O)c1nc(CBr)[nH]c(=O)c1C2=O | > 100 µM | > 100 µM | > 100 µM | > 100 µM | > 100 µM | > 100 µM | > 100 µM |  |  |  |  |  |  |  |  |  |  |  |  | 
15 | CC(C)(CN1C(=O)C(Cl)=C(Cl)C1=O)CN1C(=O)C(Cl)=C(Cl)C1=O | 40.4 µM | 29.5 µM | 20 µM | 14.4 µM | 22.2 µM | 42 µM | 48.8 µM |  | 23.2 µM |  |  |  |  |  |  |  |  |  |  | 
16 | O=C(O/N=C1\CCCC\C1=C/c1ccccc1)c1ccc([N+](=O)[O-])cc1 |  | > 100 µM | > 100 µM | > 100 µM |  | > 100 µM | > 100 µM |  | > 100 µM |  |  |  |  |  |  |  |  |  |  | 
17 | COc1cccc2c1-c1nc(N)c3c(OC)cccc3c1C2=O | > 100 µM | > 100 µM | > 100 µM |  | > 100 µM | > 100 µM | > 100 µM | > 100 µM | > 100 µM |  | > 100 µM |  |  |  |  |  |  |  |  | 
18 | O=S1(=O)N2CN3CN(C2)CN1C3 | 712 µM | 49.2 µM | 225 µM |  | 692 µM | 90.6 µM | 53.4 µM and 67.2 µM |  |  |  |  |  |  | 40.6 µM |  |  |  |  |  | 
19 | Cc1ccc(NC(=O)CCCC(=O)CC(=O)c2ccc(Br)cc2)cc1 | > 100 µM | > 100 µM | > 100 µM | > 100 µM | > 100 µM | > 100 µM | > 100 µM |  | > 100 µM |  |  |  |  |  |  |  |  |  |  | 
20 | N#CCCn1[nH]c(=O)c(Cl)c(Cl)c1=O | 33.6 µM |  | 30.9 µM | 32.2 µM | 68.4 µM | 24.2 µM | 24.6 µM |  | 26.7 µM |  |  |  |  |  |  |  |  |  |  | 
21 | CC1(C)CCC(Sc2ccccc2)O1 (stereo unspecified) | > 100 µM | > 100 µM | > 100 µM | > 100 µM | > 100 µM |  | > 100 µM |  | > 100 µM |  |  |  |  |  |  |  |  |  |  | 
22 | O=C1c2ccccc2C(=O)c2cc3c(cc21)CS(=O)C3 | > 100 µM | > 100 µM | > 100 µM | > 100 µM | > 100 µM | > 100 µM |  |  | > 100 µM |  |  |  |  |  |  |  |  |  |  | 
23 | O=C(c1ccc(O)cc1O)C1C(c2ccc(O)cc2)OC(c2ccc(O)cc2)C1C(=O)c1ccc(O)cc1O (stereo unspecified) |  |  | 36 µM | 45.5 µM | 49.8 µM | > 100 µM |  |  | 40 µM |  |  |  |  |  |  |  |  |  |  | 
24 | COc1ccccc1NC(=O)C1=C(C)NC(C)=C(C(=O)Nc2ccccc2OC)C1c1ccccc1[N+](=O)[O-] | 45 µM | 54.1 µM | 33.9 µM | > 100 µM | 59.2 µM | 37 µM | 27.5 µM |  | 39.1 µM |  |  |  |  |  |  |  |  |  |  | 
